Assay results: ChEMBL document CHEMBL2375306, “Antimicrobial peptides containing unnatural amino acid exhibit potent bactericidal activity against ESKAPE pathogens” (Bioorg Med Chem, 2013)
Values after ≈ are worked out from the molar mass of the structure shown. Square brackets hold non-standard residues; d marks the D form. Peptide text beside a SMILES is read from it. * marks the point of attachment. ξ: configuration not given here. X2 = NCCCC[C@H](NC(=O)[C@H](CCCCN)NC(=O)[C@H](CCCCN)NC(=O)[C@H](CCCCN)NCCCCCC(=O)[C@@H]1Cc2ccccc2CN1*)C(N)=O; X3 = NCCCC[C@H](NC(=O)[C@H](CCCCN)NC(=O)[C@H](CCCCN)NC(=O)[C@H](CCCCN)NCCCC(=O)[C@@H]1Cc2ccccc2CN1*)C(N)=O; Pro(3ξ,4ξ-(CH2)4) = O=C(O)[C@H]1NCC2CCCCC21; Phe(4-F) = N[C@@H](Cc1ccc(F)cc1)C(=O)O; Tic = O=C(O)[C@@H]1Cc2ccccc2CN1; X1 = CC(=O)NC(=O)[C@H](CN)N*; Dap = NC[C@H](N)C(=O)O; GABA = NCCCC(=O)O; βAla = NCCC(=O)O

Tests used:
Format in all cases: functional
Enterococcus faecium = assay: Antibacterial activity against Enterococcus faecium MMC4 after 24 hrs by broth microdilution method; conditions: MMC4, 24 h
Klebsiella aerogenes = assay: Antibacterial activity against Enterobacter aerogenes after 24 hrs by broth microdilution method
Pseudomonas aeruginosa = assay: Antibacterial activity against Pseudomonas aeruginosa PAO1 after 24 hrs by broth microdilution method; conditions: PAO1, 24 h
Klebsiella pneumoniae = assay: Antibacterial activity against Klebsiella pneumoniae BAMS clinical isolate 07-18 after 24 hrs by broth microdilution method; conditions: BAMS clinical isolate 07-18, 24 h
Acinetobacter baumannii = assay: Antibacterial activity against Acinetobacter baumannii WRAIR clinical isolate 13 after 24 hrs by broth microdilution method; conditions: WRAIR clinical isolate 13, 24 h
Staphylococcus aureus = assay: Antibacterial activity against methicillin-sensitive Staphylococcus aureus UAMS-1 after 24 hrs by broth microdilution method; conditions: UAMS-1, 24 h

Compound	MIC (Enterococcus faecium)	MIC (Klebsiella aerogenes)	MIC (Pseudomonas aeruginosa)	MIC (Klebsiella pneumoniae)	MIC (Acinetobacter baumannii)	MIC (Staphylococcus aureus)	MBC (Enterococcus faecium)	MBC (Klebsiella aerogenes)	MBC (Pseudomonas aeruginosa)	MBC (Klebsiella pneumoniae)	MBC (Acinetobacter baumannii)	MBC (Staphylococcus aureus)
CC(=O)NCC(=O)N[C@@H](Cc1ccccc1)C(=O)N1Cc2ccccc2C[C@H]1C(=O)N1CC2CCCCC2[C@H]1C(=O)NCC(=O)N[C@@H](CCCCN)C(=O)N1Cc2ccccc2C[C@H]1C(=O)N1CC2CCCCC2[C@H]1C(=O)NCC(=O)N[C@@H](Cc1ccccc1)C(=O)N1Cc2ccccc2C[C@H]1C(=O)N1CC2CCCCC2[C@H]1C(=O)NCC(=O)N[C@@H](CCCCN)C(=O)N1Cc2ccccc2C[C@H]1C(=O)CCCN[C@@H](CCCCN)C(=O)N[C@@H](CCCCN)C(=O)N[C@@H](CCCCN)C(=O)N[C@@H](CCCCN)C(N)=O (some centres undefined) (Ac-GF[Tic][Pro(3ξ,4ξ-(CH2)4)]GK[Tic][Pro(3ξ,4ξ-(CH2)4)]GF[Tic][Pro(3ξ,4ξ-(CH2)4)]GK-X3)	50 µg/mL (≈ 20.1 µM)	> 100 µg/mL	> 100 µg/mL	> 100 µg/mL	12.5 µg/mL (≈ 5.03 µM)	> 100 µg/mL	> 100 µg/mL	> 100 µg/mL	> 100 µg/mL	> 100 µg/mL	50 µg/mL (≈ 20.1 µM)	> 100 µg/mL
CC(=O)NCCCC(=O)N[C@@H](Cc1ccccc1)C(=O)N1Cc2ccccc2C[C@H]1C(=O)N1CC2CCCCC2[C@H]1C(=O)NCCCC(=O)N[C@@H](CCCCN)C(=O)N1Cc2ccccc2C[C@H]1C(=O)N1CC2CCCCC2[C@H]1C(=O)NCCCC(=O)N[C@@H](Cc1ccccc1)C(=O)N1Cc2ccccc2C[C@H]1C(=O)N1CC2CCCCC2[C@H]1C(=O)NCCCC(=O)N[C@@H](CCCCN)C(=O)N1Cc2ccccc2C[C@H]1C(=O)N[C@@H](CCCCN)C(=O)N[C@@H](CCCCN)C(=O)N[C@@H](CCCCN)C(=O)N[C@@H](CCCCN)C(=O)N[C@@H](CCCCN)C(N)=O (some centres undefined) (Ac-[GABA]F[Tic][Pro(3ξ,4ξ-(CH2)4)][GABA]K[Tic][Pro(3ξ,4ξ-(CH2)4)][GABA]F[Tic][Pro(3ξ,4ξ-(CH2)4)][GABA]K[Tic]KKKKK-NH2)	–	> 100 µg/mL	> 100 µg/mL	> 100 µg/mL	–	> 100 µg/mL	–	> 100 µg/mL	> 100 µg/mL	> 100 µg/mL	–	> 100 µg/mL
CC(=O)NCCC(=O)N[C@@H](Cc1ccc(F)cc1)C(=O)N1Cc2ccccc2C[C@H]1C(=O)N1CC2CCCCC2[C@H]1C(=O)NCCC(=O)N[C@@H](CCCCN)C(=O)N1Cc2ccccc2C[C@H]1C(=O)N1CC2CCCCC2[C@H]1C(=O)NCCC(=O)N[C@@H](Cc1ccc(F)cc1)C(=O)N1Cc2ccccc2C[C@H]1C(=O)N1CC2CCCCC2[C@H]1C(=O)NCCC(=O)N[C@@H](CCCCN)C(=O)N1Cc2ccccc2C[C@H]1C(=O)N[C@@H](CN)C(=O)N[C@@H](CN)C(=O)N[C@@H](CN)C(=O)N[C@@H](CN)C(=O)NC(C)=O (some centres undefined) (Ac-[βAla][Phe(4-F)][Tic][Pro(3ξ,4ξ-(CH2)4)][βAla]K[Tic][Pro(3ξ,4ξ-(CH2)4)][βAla][Phe(4-F)][Tic][Pro(3ξ,4ξ-(CH2)4)][βAla]K[Tic][Dap][Dap][Dap]-X1)	–	> 100 µg/mL	50 µg/mL (≈ 20.8 µM)	50 µg/mL (≈ 20.8 µM)	12.5 µg/mL (≈ 5.19 µM)	100 µg/mL (≈ 41.5 µM)	–	> 100 µg/mL	> 100 µg/mL	100 µg/mL (≈ 41.5 µM)	12.5 µg/mL (≈ 5.19 µM)	> 100 µg/mL

Second part, led by results:

MIC (Enterococcus faecium)	MIC (Klebsiella aerogenes)	MIC (Pseudomonas aeruginosa)	MIC (Klebsiella pneumoniae)	MIC (Acinetobacter baumannii)	MIC (Staphylococcus aureus)	Compound	MBC (Enterococcus faecium)	MBC (Klebsiella aerogenes)	MBC (Pseudomonas aeruginosa)	MBC (Klebsiella pneumoniae)	MBC (Acinetobacter baumannii)	MBC (Staphylococcus aureus)
12.5 µg/mL (≈ 4.68 µM)	> 100 µg/mL	> 100 µg/mL	100 µg/mL (≈ 37.4 µM)	12.5 µg/mL (≈ 4.68 µM)	> 100 µg/mL	CC(=O)NCC(=O)N[C@@H](Cc1ccccc1)C(=O)N1Cc2ccccc2C[C@H]1C(=O)N1CC2CCCCC2[C@H]1C(=O)NCC(=O)N[C@@H](CC(=O)O)C(=O)N[C@@H](CCCCN)C(=O)N1Cc2ccccc2C[C@H]1C(=O)N1CC2CCCCC2[C@H]1C(=O)NCC(=O)N[C@@H](Cc1ccccc1)C(=O)N1Cc2ccccc2C[C@H]1C(=O)N1CC2CCCCC2[C@H]1C(=O)NCC(=O)N[C@@H](CC(=O)O)C(=O)N[C@@H](CCCCN)C(=O)N1Cc2ccccc2C[C@H]1C(=O)N[C@@H](CCCCN)C(=O)N[C@@H](CCCCN)C(=O)N[C@@H](CCCCN)C(=O)N[C@@H](CCCCN)C(N)=O (some centres undefined) (Ac-GF[Tic][Pro(3ξ,4ξ-(CH2)4)]GDK[Tic][Pro(3ξ,4ξ-(CH2)4)]GF[Tic][Pro(3ξ,4ξ-(CH2)4)]GDK[Tic]KKKK-NH2)	50 µg/mL (≈ 18.7 µM)	> 100 µg/mL	> 100 µg/mL	100 µg/mL (≈ 37.4 µM)	25 µg/mL (≈ 9.36 µM)	> 100 µg/mL
25 µg/mL (≈ 9.96 µM)	100 µg/mL (≈ 39.8 µM)	100 µg/mL (≈ 39.8 µM)	100 µg/mL (≈ 39.8 µM)	12.5 µg/mL (≈ 4.98 µM)	100 µg/mL (≈ 39.8 µM)	CC(=O)NCC(=O)N[C@@H](Cc1ccccc1)C(=O)N1Cc2ccccc2C[C@H]1C(=O)N1CC2CCCCC2[C@H]1C(=O)NCC(=O)N[C@@H](CCCCN)C(=O)N1Cc2ccccc2C[C@H]1C(=O)N1CC2CCCCC2[C@H]1C(=O)NCC(=O)N[C@@H](Cc1ccccc1)C(=O)N1Cc2ccccc2C[C@H]1C(=O)N1CC2CCCCC2[C@H]1C(=O)NCC(=O)N[C@@H](CCCCN)C(=O)N1Cc2ccccc2C[C@H]1C(=O)CCCCCN[C@@H](CCCCN)C(=O)N[C@@H](CCCCN)C(=O)N[C@@H](CCCCN)C(=O)N[C@@H](CCCCN)C(N)=O (some centres undefined) (Ac-GF[Tic][Pro(3ξ,4ξ-(CH2)4)]GK[Tic][Pro(3ξ,4ξ-(CH2)4)]GF[Tic][Pro(3ξ,4ξ-(CH2)4)]GK-X2)	> 100 µg/mL	> 100 µg/mL	> 100 µg/mL	100 µg/mL (≈ 39.8 µM)	25 µg/mL (≈ 9.96 µM)	> 100 µg/mL
